Here are results for 1 compound from patent US20210163412A1, “NOVEL SULFONEUREA COMPOUNDS” (Inflazome Limited, priority 2018, published 2021).

For assay [1], the target named is T1, NLRP3 (Homo sapiens, UniProt Q96P20). Put plainly: THP-1 cells pyroptosis assay. The following applies: LPS 1 μg/ml, nigericin 5 μM, resazurin readout. It counts as cell-based. Set-up: Seed THP-1 cells (25,000 cells/well) containing 1.0 μg/ml LPS; host or cells: THP-1 cells. The method, then: The cells were routinely passaged and grown to confluency (˜10^6 cells/ml). On the day of the experiment, THP-1 cells were harvested and resuspended into RPMI medium (without FBS). The cells were then counted and viability (>90%) checked by Trypan blue (Sigma #T8154). […] To this diluted cell solution was added LPS (Sigma #L4524) to give a 1 μg/ml Final Assay Concentration (FAC). 40 μl of the final preparation was aliquoted into each well of a 96-well plate. The plate thus prepared was used for compound screening.
The following method step-by-step assay was followed for compound screening. • 1. […] Incubate for 3 hrs at 37° C., 5% CO2 • 4. Add 5 μl nigericin (Sigma #N7143) (FAC 5 μM) to all wells • 5. Incubate for 1 hr at 37° C., 5% CO2 • 6. At the end of the incubation period, spin plates at 300×g for 3 mins and remove supernatant • 7. Then add 50 μl of resazurin (Sigma #R7017) (FAC 100 μM resazurin in RPMI medium without FBS) and incubate plates for a further 1-2 hrs at 37° C. and 5% CO2 • 8. […] IC50 data is fitted to a non-linear regression equation (log inhibitor vs response-variable slope 4-parameters)

Assay [2] deals with T1, NLRP3. Put plainly: Human whole blood IL-1β release assay. It counts as cell-based. Also noted: Human whole blood in Li-heparin tubes was obtained from healthy donors; from tissue; host or cells: human whole blood from healthy donors. Particulars: LPS 1 μg/ml, nigericin, IL-1β in supernatant (AlphaLisa), read-out: HWB IC50. The method, then: For systemic delivery, the ability to inhibit NLRP3 when the compounds are present within the bloodstream is of great importance. For this reason, the NLRP3 inhibitory activity of a number of compounds in human whole blood was investigated in accordance with the following protocol.
Human whole blood in Li-heparin tubes was obtained from healthy donors from a volunteer donor panel. • 1. […] Incubate for 3 hrs at 37° C., 5% CO2 • 4. Add 1 μl nigericin (Sigma #N7143) ([…]) to all wells • 5. Incubate for 1 hr at 37° C., 5% CO2 • 6. At the end of the incubation period, spin plates at 300×g for 5 mins to pellet cells and remove 20 μl of supernatant and add to 96-well v-bottom plates for IL-1β analysis (note: these plates containing the supernatants can be stored at −80° C. to be analysed at a later date) • 7. IL-1β was measured according to the manufacturer protocol (Perkin Elmer-AlphaLisa IL-1 Kit AL220F-5000) • 8. IC50 data is fitted to a non-linear regression equation (log inhibitor vs response-variable slope 4-parameters)
In general terms: In Alpha technology, singlet oxygen from a donor bead excites a nearby acceptor bead.

T1 sequence (Q96P20 whole entry): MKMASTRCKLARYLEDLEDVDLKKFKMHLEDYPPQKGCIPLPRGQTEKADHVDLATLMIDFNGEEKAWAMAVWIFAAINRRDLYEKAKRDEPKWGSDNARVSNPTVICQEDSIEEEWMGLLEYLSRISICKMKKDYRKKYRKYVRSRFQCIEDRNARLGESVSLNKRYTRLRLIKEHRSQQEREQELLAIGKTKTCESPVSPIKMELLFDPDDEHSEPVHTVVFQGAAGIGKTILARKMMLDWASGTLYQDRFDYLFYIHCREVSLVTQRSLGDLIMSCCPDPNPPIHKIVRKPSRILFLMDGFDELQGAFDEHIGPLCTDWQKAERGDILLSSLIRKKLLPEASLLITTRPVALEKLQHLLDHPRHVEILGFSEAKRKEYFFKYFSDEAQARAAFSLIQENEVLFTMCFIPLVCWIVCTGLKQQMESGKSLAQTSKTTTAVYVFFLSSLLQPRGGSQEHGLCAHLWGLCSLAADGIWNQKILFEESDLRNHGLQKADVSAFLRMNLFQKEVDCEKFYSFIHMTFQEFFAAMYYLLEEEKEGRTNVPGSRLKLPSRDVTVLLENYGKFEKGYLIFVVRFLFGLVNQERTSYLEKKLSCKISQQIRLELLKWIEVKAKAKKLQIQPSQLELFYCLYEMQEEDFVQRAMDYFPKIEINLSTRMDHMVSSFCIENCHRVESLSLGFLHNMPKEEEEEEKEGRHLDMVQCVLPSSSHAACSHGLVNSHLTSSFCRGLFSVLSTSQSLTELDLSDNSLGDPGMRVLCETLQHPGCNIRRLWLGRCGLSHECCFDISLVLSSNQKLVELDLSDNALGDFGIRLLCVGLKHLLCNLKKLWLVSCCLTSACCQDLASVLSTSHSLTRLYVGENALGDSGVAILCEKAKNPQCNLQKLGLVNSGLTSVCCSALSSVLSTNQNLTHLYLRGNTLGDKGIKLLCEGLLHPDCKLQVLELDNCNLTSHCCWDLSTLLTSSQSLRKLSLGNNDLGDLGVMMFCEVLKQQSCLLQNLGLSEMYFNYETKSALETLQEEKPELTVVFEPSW

On to `Cc1cc2c(c(NC(=O)NS(C)(=N)=O)c1-c1ccnc(OC3CCN(C)CC3)c1)CCC2` (centres unmarked) [Example 80, N-((6-Methyl-5-(2-((1-methylpiperidin-4-yl)oxy)pyridin-4-yl)-2,3-dihydro-1H-inden-4-yl)carbamoyl)methanesulfonimidamide], for which the IC50 was at most 250 nM in assay [1] and 500 to 1000 nM in assay [2].

The IC50 is the concentration that gives 50% inhibition.
